Read-outs that look alike come from different tables or passages of the source.
Key:
TOR2 [1] = biological target: T1, TOR2 (Saccharomyces cerevisiae, UniProt P32600); test: IP radiometric kinase assay on PHAS-I; format: biochemical
TOR2 [2] = biological target: T1, TOR2; test: IP radiometric kinase assay on PHAS-I; format: biochemical; remark: listed apart in the source

Row | IC50 (TOR2 [2]) [nM] | Compound | IC50 (TOR2 [1]) [nM]
1 | – | CCC(=O)N1CCN(c2ccc(-n3c(=O)ccc4cnc5ccc(-c6cnc7ccccc7c6)cc5c43)cc2C(F)(F)F)CC1 [Torin1] | 250 to 500
2 | ~50 | Nc1ccc(-c2ccc3ncc4ccc(=O)n(-c5ccc(F)c(C(F)(F)F)c5)c4c3c2)cn1 [QL-IX-55] | –

— article PMC3376217 (2012)
